As a reminder, the IC50 is the concentration at which inhibition is half-maximal.

The record followed here is US9115127B2 (AMGEN INC., priority 2010, dated 2015).

In the assay the target is T1, wild-type human ALK (cytoplasmic domain, amino acids 1058-1620, N-terminal GST fusion) (Homo sapiens, UniProt Q9UM73).
T1 construct: The cytoplasmic domain (amino acids 1058-1620) of wild-type human ALK; GST (N); made in house; host or cells: SF9 insect cells
T1 sequence (Q9UM73 1058-1620): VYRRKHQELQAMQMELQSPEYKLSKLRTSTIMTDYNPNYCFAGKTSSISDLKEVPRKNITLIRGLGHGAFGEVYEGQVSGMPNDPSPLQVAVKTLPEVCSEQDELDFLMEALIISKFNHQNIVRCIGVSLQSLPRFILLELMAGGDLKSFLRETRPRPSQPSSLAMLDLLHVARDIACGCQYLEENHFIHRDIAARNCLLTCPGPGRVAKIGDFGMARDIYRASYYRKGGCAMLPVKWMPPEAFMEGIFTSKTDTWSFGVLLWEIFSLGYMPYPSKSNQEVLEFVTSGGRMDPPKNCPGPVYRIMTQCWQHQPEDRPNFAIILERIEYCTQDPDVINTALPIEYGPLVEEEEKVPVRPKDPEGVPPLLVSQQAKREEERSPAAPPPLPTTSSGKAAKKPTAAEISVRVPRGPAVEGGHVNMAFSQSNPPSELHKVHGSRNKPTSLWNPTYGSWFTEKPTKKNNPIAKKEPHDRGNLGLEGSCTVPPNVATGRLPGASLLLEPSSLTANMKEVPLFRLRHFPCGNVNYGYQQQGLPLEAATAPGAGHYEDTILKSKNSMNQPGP
In words: ALK Inhibition in Enzyme Assay (Lance TR-FRET kinase assay). The format is biochemical. On the procedure: ALK Inhibition in Enzyme Assay
Kinase activity of the purified protein was assessed using a Lance® TR-FRET assay. […] The reaction was allowed to proceed for 90 minutes at room temperature and was then terminated with 20 mM EDTA in 50 mM Tris (pH 7.5), 100 mM NaCl, 0.05% BSA, and 0.1% Tween-20. Phosphorylation of the peptide substrate was detected using the Lance® detection reagents streptavidin-allophycocyanin (SA-APC) and Eu-W1024 anti-phosphotyrosine antibody (PT66) from Perkin Elmer Life Sciences (Waltham, Mass.). The plates were read on a RUBY star plate reader (BMG LABTECH, Cary, N.C.) with an excitation wavelength of 320 nm.
In general terms: TR-FRET usually uses a lanthanide donor and a delayed reading to cut background.
Compound `CC(C)CNC(=O)[C@H]1CC[C@@H](n2/c(=N/C(=O)c3ccc(F)cc3)[nH]c3ccc(CN4CCCCC4)cc32)CC1` [Example 35, (E)-4-Fluoro-N-(1-(cis-4-(isobutylcarbamoyl)cyclohexyl)-6-(piperidin-1-ylmethyl)-1H-benzo[d]imidazol-2(3H)-ylidene)benzamide] came in with a 50% inhibitory concentration (IC50) of under 0.05 µM.
Regarding `CC(C)NC[C@H]1CC[C@@H](n2/c(=N/C(=O)c3ccc(F)cc3)[nH]c3ccc(CN4CCCCC4)cc32)CC1` [Example 36, (E)-4-Fluoro-N-(1-(cis-4-((isopropylamino)methyl)cyclohexyl)-6-(piperidin-1-ylmethyl)-1H-benzo[d]imidazol-2(3H)-ylidene)benzamide], the IC50 was 0.1 to 1 µM.
The result for `O=C(/N=c1\[nH]c2ccc(CN3CCCCC3)cc2n1[C@H]1CC[C@@H](CO)CC1)c1ccc(F)cc1` [Example 37, (E)-4-Fluoro-N-(1-(cis-4-(hydroxymethyl)cyclohexyl)-6-(piperidin-1-ylmethyl)-1H-benzo[d]imidazol-2(3H)-ylidene)benzamide] reads 0.1 to 1 µM.
As to `C=CCNS(=O)(=O)c1cc(C(=O)/N=c2\[nH]c3ccc(CN4CCCCC4)cc3n2[C@H]2CC[C@@H](C(N)=O)CC2)ccc1F` [Example 38, (E)-3-(N-Allylsulfamoyl)-N-(1-(cis-4-carbamoylcyclohexyl)-6-(piperidin-1-ylmethyl)-1H-benzo[d]imidazol-2(3H)-ylidene)-4-fluorobenzamide], the IC50 is under 0.05 µM.
`O=C(/N=c1\[nH]c2ccc(CN3CCCCC3)cc2n1[C@H]1CC[C@@H](C(=O)NCC(F)(F)F)CC1)c1ccc(F)cc1` [Example 39, (E)-4-Fluoro-N-(6-(piperidin-1-ylmethyl)-1-(cis-4-(2,2,2-trifluoroethylcarbamoyl)cyclohexyl)-1H-benzo[d]imidazol-2(3H)-ylidene)benzamide] displayed an IC50 of under 0.05 µM.
The result for `CC(C)CCNC(=O)[C@H]1CC[C@@H](n2/c(=N/C(=O)c3ccc(F)cc3)[nH]c3ccc(CN4CCCCC4)cc32)CC1` [Example 40, (E)-4-Fluoro-N-(1-(cis-4-(isopentylcarbamoyl)cyclohexyl)-6-(piperidin-1-ylmethyl)-1H-benzo[d]imidazol-2(3H)-ylidene)benzamide] reads 0.05 to 0.1 µM; that for `CC(C)NC(=O)[C@H]1CC[C@@H](n2/c(=N/C(=O)c3ccc(F)cc3)[nH]c3ccc(CN4CCOCC4)cc32)CC1` [Example 41, (E)-4-Fluoro-N-(1-(cis-4-(isopropylcarbamoyl)cyclohexyl)-6-(morpholinomethyl)-1H-benzo[d]imidazol-2(3H)-ylidene)benzamide], under 0.05 µM.
`O=C(/N=c1\[nH]c2ccc(CN3CCOCC3)cc2n1[C@H]1CC[C@@H](C(=O)O)CC1)c1ccc(F)cc1` [Example 42, cis-4-((E)-2-(4-Fluorobenzoylimino)-6-(morpholinomethyl)-2,3-dihydro-1H-benzo[d]imidazol-1-yl)cyclohexanecarboxylic acid] gave an IC50 of 1 to 5 µM.
To `COC(=O)[C@H]1CC[C@@H](n2/c(=N/C(=O)c3ccc(F)cc3)[nH]c3cnc(OCCN4CCCCC4)cc32)CC1` [Example 44, cis-Methyl 4-((E)-2-(4-fluorobenzoylimino)-6-(2-(piperidin-1-yl)ethoxy)-2,3-dihydro-1H-imidazo[4,5-c]pyridin-1-yl)cyclohexanecarboxylate] belongs under 0.05 µM.
To `CC(C)NC(=O)[C@H]1CC[C@@H](n2/c(=N/C(=O)c3ccc(F)cc3)[nH]c3cnc(OCCN4CCCCC4)cc32)CC1` [Example 45, (E)-4-Fluoro-N-(1-(cis-4-(isopropylcarbamoyl)cyclohexyl)-6-(2-(piperidin-1-yl)ethoxy)-1H-imidazo[4,5-c]pyridin-2(3H)-ylidene)benzamide] belongs under 0.05 µM; to `CC(C)N(C)C(=O)[C@H]1CC[C@@H](n2/c(=N/C(=O)c3ccc(F)cc3)[nH]c3ccc(CN4CCCCC4)cc32)CC1` [Example 46, (E)-4-Fluoro-N-(1-(cis-4-(isopropyl(methyl)carbamoyl)cyclohexyl)-6-(piperidin-1-ylmethyl)-1H-benzo[d]imidazol-2(3H)-ylidene)benzamide], under 0.05 µM.
